Positions of bridges follow the written chain, without caps; N, C: chain ends. Non-standard residues stand in square brackets, D forms with d. Residues, ends and D or L forms follow the SMILES beside them. *: point of attachment. 5FAM = O=C1OC2(c3ccc(O)cc3Oc3cc(O)ccc32)c2ccc(C(=O)*)cc21; βAla = NCCC(=O)O

Here are results for 2 compounds from publication PMC8116058, “De novo macrocyclic peptides dissect energy coupling of a heterodimeric ABC transporter by multimode allosteric inhibition” (eLife, 2021).

The subject of one assay is TmrAB. The assay is described as follows: ATP binding by scintillation proximity assay (SPA). Conditions: CP^B 1 µM; for Effect on ATP binding to TmrAB: SPA; for Signal, ATP binding: TmrAB 0.2 µM on SPA beads, ATP 3 µM traced with 3H-ATP, 30 min on ice, without CP 5.06; for Signal, Background: after release of TmrAB from beads with imidazole 200 mM. The arrangement: species or system Thermus thermophilus. The source says:
To elucidate the mechanistic basis for the inhibition of ATP hydrolysis and substrate transport, we investigated the effects of CPs on substrate binding. In the first approach, fluorescent CP^Fs were used as reporters in fluorescence polarization. […] In addition, we examined the impact of CP^Bs on ATP binding to TmrAB by scintillation proximity assays (SPA) (Figure 4C). […] Taken together, CPs are high-affinity allosteric inhibitors of TmrAB that leave ATP binding and substrate interaction largely unaffected, while impairing ATP hydrolysis and substrate translocation across the membrane.
Figure 4. […] (A) CP^Fs binding TmrAB is not affected by substrate peptide binding. […] For competition, C4^ATTO655 peptide (2 µM) or R9LQK peptide (200 µM) were added. (B) Binding of C4F peptide is not affected by CP^Bs. C4F peptides (50 nM) were mixed with TmrAB (4 µM), and fluorescence anisotropy was monitored as described in (A). For competition, C4^ATTO655 (10 µM) or CP^Bs (6 µM) were added. […] TmrAB (0.2 µM) were immobilized on SPA beads and incubated with ATP (3 μM, traced with ^3H-ATP) in the presence and absence of CP^Bs (1 µM each) for 30 min on ice. ATP binding was monitored by SPA. Background values were determined after releasing TmrAB complexes from the beads by adding imidazole (200 mM). The background signal in the absence of CP^Bs was set to 0 cpm. […] As this is an equilibrium experiment, this can be rationalized by the fact that CP13 stabilizes the ATP-bound OF conformer. Figure 4—source data 1. Source data for Figure 4.
DDM-solubilized TmrAB (0.2 µM) was incubated with ATP (2.8 μM), [2,5’,8-^3H(N)]-ATP (0.2 µM, ^3H-ATP, PerkinElmer), MgCl2 (3 mM), and CP^Bs (1 µM) for 30 min on ice. Copper-chelated SPA beads (PerkinElmer) were added to a final concentration of 5 mg/ml. Total binding was determined at 20°C in cpm mode (Wallac MicroBeta). Bound TmrAB complexes were eluted by adding 200 mM of imidazole, and background binding was determined. Data represent mean ± SD from three experiments.
On the technique in general: SPA uses beads or plates that emit light when radiolabelled molecules are held near them.

Assay [1] concerns wild-type TmrAB in liposomes. In words: Single-liposome flow cytometry transport assay. Format: biochemical, Thermus thermophilus. The conditions noted are these: for Peptide transport in two successive IF-to-OF cycles: 5 min 45°C / 60 min 4°C, repeated; for Effect on C4^ATTO655 peptide translocation / Transported C4^ATTO655, Peptides/liposome: CP^F 1 µM, 5 min 45°C; for Transported C4^ATTO655, Peptides/liposome: TmrAB 0.4 µM, C4^ATTO655 1 µM, ATP 3 mM, ATP without CP 84.57, ADP 3.52; for Peptides/liposome, two consecutive transport cycles: ADP background corrected. The protocol: To investigate whether an IF-to-OF transition and conformational arrest by CP13^F or CP14^F can still result in a productive substrate translocation, we followed peptide transport by wild-type TmrAB by single liposome-based flow cytometry (Figure 6A). […] CPs block multiple-turnover transport monitored by quantitative flow cytometry. (A) Single turnover by IF-to-OF switch monitored by single-liposome flow cytometry. […] Transport reactions were stopped by the addition of EDTA (10 mM). 100,000 proteoliposomes were analyzed by flow cytometry monitoring fluorescein and ATTO655 intensities. […] (C, D) Slowdown of multiple-turnover substrate transport. […] Transported peptides per liposomes were evaluated and corrected by ADP background levels as described in (B). Transport kinetics were fitted monoexponentially. […] (E) Two consecutive transport cycles. […] Transported peptides per liposome were evaluated as described in (B) and corrected by background levels in the presence of ADP. […] Figure 6-source data 1. Source data for Figure 6. Figure 6-figure supplement 1. Linear regression of quantitative flow cytometry analysis. (A) Gating strategy. Liposomes were selected according to side and forward scatter areas. Single liposomes were gated based on the height of forward scatter correlated to the area of forward scatter. […] Detergent was removed, and liposomes were extensively washed by centrifugation. […] Equal concentrations of fluorescein served as loading control (right). (C) Linear regression. […] Mean values ± SD (n = 3) are shown. Figure 6-figure supplement 1-source data 1. Source Data for Figure 6-figure supplement 1. [drawing 5] […] To confirm the conformational arrest of wild-type TmrAB by CP13^F and the slow turnover in the presence of CP14^F, we examined two successive cycles of conformational transitions by flow cytometry. […] Both steps were repeated to yield two consecutive cycles of conformational transitions. […] Taken together, the macrocyclic peptides CP13 and CP14 stabilize a pre-hydrolysis state, thus allowing a single-turnover translocation along the IF-to-OF switch. […] Transport reactions were stopped by adding EDTA (10 mM). […] For regression analysis, liposomes were loaded with increasing amounts of peptides to convert the fluorescence intensities into the number of peptides per liposome ([Stefan et al., 2020]). […] Equal amounts of carboxyfluorescein (Sigma-Aldrich) served as loading control. Detergent was removed by adding SM-2 Bio-beads (Bio-Rad) as detailed above. Liposomes were harvested for 30 min at 270,000 g and washed three times by centrifugation. Generally, 20,000-100,000 proteoliposomes were selected according to sideward and forward scatter areas. Single events were selected based on the height of forward scatter plotted against the area of forward scatter. […] Data represent mean ± SD from three experiments.
(In flow cytometry, cells or beads pass a laser one at a time.)

The mark [2] stands for this setting: time 5 min (after first 5 min at 45°C).
Where [3] appears, read: time 65 min (after 60 min at 4°C).
Setting [4] is: time 70 min (after second 5 min at 45°C).
[5] abbreviates: time 130 min (after second 60 min at 4°C).

For `CC[C@H](C)[C@@H]1NC(=O)[C@H]([C@@H](C)O)NC(=O)[C@H](CC(C)C)NC(=O)[C@H](Cc2c[nH]c3ccccc23)NC(=O)[C@H](Cc2ccccc2)NC(=O)[C@H](CC(N)=O)NC(=O)[C@H](CCC(=O)O)NC(=O)[C@H](CC(C)C)NC(=O)[C@H](CS)NC(=O)[C@H](Cc2c[nH]cn2)NC(=O)[C@H](CO)NC(=O)[C@@H](Cc2ccc(O)cc2)NC(=O)CSC[C@@H](C(=O)NCC(=O)N[C@@H](CO)C(=O)NCCC(=O)NCCC(=O)N[C@@H](CCCNC(=N)N)C(=O)N[C@@H](CCCCNC(=O)c2ccc3c(c2)C(=O)OC32c3ccc(O)cc3Oc3cc(O)ccc32)C(N)=O)NC(=O)[C@H](CC(C)C)NC1=O` [CP6] ({CH2CO}-[dY]SHCLENFWLTILCGS[βAla][βAla]RK(5FAM)-NH2; thioether N-14), in the assay on TmrAB, the “Effect on ATP binding to TmrAB” value is on record as “only minor effects on ATP binding”; the “Signal, ATP binding” value is reported as 4.22 cpm*10^3; the “Signal, Background” value is given as -0.04 cpm*10^3. In assay [1], the “Peptide transport in two successive IF-to-OF cycles” value is recorded as “peptide translocation was completely abrogated”; the “Effect on C4^ATTO655 peptide translocation” value is “completely prevented C4^ATTO655 peptide translocation”; the “Transported C4^ATTO655, Peptides/liposome” value came to 4.74 Peptides/liposome. Besides, the “Peptides/liposome, two consecutive transport cycles” value in assay [1] (time 0 min) worked out at 0.00 Peptides/liposome. Besides, in assay [1] (setting [2]), the “Peptides/liposome, two consecutive transport cycles” value turned out to be 0.17 Peptides/liposome. For the same compound, the “Peptides/liposome, two consecutive transport cycles” value in assay [1] (setting [3]) worked out at 0.01 Peptides/liposome. Further, the “Peptides/liposome, two consecutive transport cycles” value in assay [1] (setting [4]) is on record as 1.93 Peptides/liposome. For the same compound, in assay [1] (setting [5]), the “Peptides/liposome, two consecutive transport cycles” value amounted to 1.54 Peptides/liposome.
Consider `CC(C)C[C@@H]1NC(=O)[C@H](Cc2ccccc2)NC(=O)CNC(=O)[C@H](CO)NC(=O)[C@H](Cc2ccccc2)NC(=O)[C@H](CC(=O)O)NC(=O)[C@@H]2CCCN2C(=O)[C@H]([C@@H](C)O)NC(=O)[C@@H](Cc2ccc(O)cc2)NC(=O)CSC[C@@H](C(=O)NCC(=O)N[C@@H](CO)C(=O)NCCC(=O)NCCC(=O)N[C@@H](CCCNC(=N)N)C(=O)N[C@@H](CCCCNC(=O)c2ccc3c(c2)C(=O)OC32c3ccc(O)cc3Oc3cc(O)ccc32)C(N)=O)NC(=O)[C@H](C)NC(=O)[C@H](CC(N)=O)NC(=O)[C@H](CCCNC(=N)N)NC(=O)[C@H](CC(C)C)NC(=O)[C@H](Cc2ccccc2)NC(=O)[C@H](C)NC1=O` [CP12] ({CH2CO}-[dY]TPDFSGFLAFLRNACGS[βAla][βAla]RK(5FAM)-NH2; thioether N-16), for which, in the assay with TmrAB, the “Effect on ATP binding to TmrAB” value is “no effect on ATP binding”; the “Signal, ATP binding” value came out at 5.02 cpm*10^3; the “Signal, Background” value amounted to 0.08 cpm*10^3. In addition, in assay [1], the “Peptide transport in two successive IF-to-OF cycles” value is recorded as “peptide translocation was completely abrogated”; the “Effect on C4^ATTO655 peptide translocation” value is on record as “completely prevented C4^ATTO655 peptide translocation”; the “Transported C4^ATTO655, Peptides/liposome” value was determined as 4.93 Peptides/liposome. For the same compound, the “Peptides/liposome, two consecutive transport cycles” value in assay [1] (time 0 min) is on record as 0.00 Peptides/liposome. Further, the “Peptides/liposome, two consecutive transport cycles” value in assay [1] (setting [2]) was found to be 1.11 Peptides/liposome. The “Peptides/liposome, two consecutive transport cycles” value in assay [1] (setting [3]) worked out at 1.17 Peptides/liposome. The “Peptides/liposome, two consecutive transport cycles” value in assay [1] (setting [4]) turned out to be 1.70 Peptides/liposome. Also, in assay [1] (setting [5]), the “Peptides/liposome, two consecutive transport cycles” value came to 1.01 Peptides/liposome.
